We go through 7 compounds from patent US10047034B2, “Polyhydroxylated pentacyclic triterpene acids as HMG-COA reductase inhibitors” (Prairie Berry Europe GmbH, priority 2012, dated 2018).

Broadly, the inhibition is the drop in the measured response relative to a control, in per cent.

The target of assay [1] is T1, Human recombinant HMG-CoA reductase (Homo sapiens, UniProt P04035).
T1 sequence (P04035 426-888 limits assumed): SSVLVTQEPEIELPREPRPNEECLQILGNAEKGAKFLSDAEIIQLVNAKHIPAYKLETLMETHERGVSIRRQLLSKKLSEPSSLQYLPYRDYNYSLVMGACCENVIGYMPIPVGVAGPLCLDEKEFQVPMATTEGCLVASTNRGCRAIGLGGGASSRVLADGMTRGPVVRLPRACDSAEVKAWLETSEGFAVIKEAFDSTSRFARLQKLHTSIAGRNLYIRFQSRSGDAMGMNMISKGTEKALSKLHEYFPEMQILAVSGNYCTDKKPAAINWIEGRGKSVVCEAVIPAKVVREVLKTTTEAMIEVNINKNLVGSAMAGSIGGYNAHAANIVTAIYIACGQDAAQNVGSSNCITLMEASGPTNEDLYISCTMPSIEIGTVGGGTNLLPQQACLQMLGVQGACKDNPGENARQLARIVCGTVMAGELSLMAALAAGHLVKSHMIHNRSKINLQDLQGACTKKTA
Description: HMG-CoA reductase inhibition test ([14C]mevalonate formation). The class given is biochemical. As to conditions: for inhibition at 3 µM / inhibition at 30 µM: duplicates; for HMG-CoA reductase inhibiting activity (in words): own investigations. On the procedure: Inhibition of HMG-CoA reductase was determined under following conditions. Human recombinant HMG-CoA reductase were pre-incubated with 35 ng/ml enzyme in reaction buffer, pH 7.5 (100 mM KH2PO4, 8 mM Glucose-6-Phosphate, 1 mM nicotinamide adenine dinucleotide phosphate, 4 mM ethylenediaminetetraacetic acid, 2 mM dithiothreitol, 0.6 Units glucose-6-phosphate dehydrogenase) for 15 minutes at 37° C. The reaction was initiated by addition of 2.5 μM [14C]HMG-CoA for another 20 minute incubation period and terminated by further addition of 1 N HCl. An aliquot was removed and then counted to determine the amount of [14C]Mevalonate formed. […] All samples were measured in duplicates.

In assay [2] the test system is hamsters fed with a high-cholesterol diet. Description: In vivo food cholesterol reduction (hypocholesterolemic activity). More on the design: species or system golden Syrian hamsters. As to conditions: oral once a day, extract 100 mg/kg, ezetimibe 1 mg/kg. The procedure: The dry extract of example 1 was evaluated for possible hypocholesterolemic activity in hamsters fed with a high-cholesterol diet. Groups of 10 male golden Syrian hamsters were induced to hypercholesterolemia by a high cholesterol diet (g/100 g: 5.0 corn oil, 5.0 coconut oil, 0.2 cholesterol and 89.8 standard diet throughout the 28-day experimental period. After the test animals had been kept on the high cholesterol diet for 7 days, vehicle (1% Cremophor EL in phosphate buffered saline) and extract of example 1 (incorporated into said vehicle) were administered orally, starting on day 1, for 28 days at 100 mg/kg, once a day, were administered orally for 28 consecutive days. Ezetimibe, the positive control, was also administered orally (at 1 mg/kg) for 28 consecutive days. Blood was drawn in overnight fasted animals on day 1 (pre-treatment), day 8, day 15, and day 29 for measurements of serum total cholesterol (Total plasma cholesterol), high density lipoprotein (HDL), low density lipoprotein (LDL) and triglyceride (TG) levels. The measurement values on day 8, day 15, […] and day 29 were transformed into percentage. One-way ANOVA and Dunnett's test were used to ascertain difference between vehicle control and treated groups.

Each structure is given as a SMILES string. Marks after values point to notes of the source that are not given here.

Regarding `C[C@H]1[C@H](C)CC[C@]2(C(=O)O)CC[C@]3(C)C(=CC[C@@H]4[C@@]5(C)CC[C@H](O)C(C)(C)[C@@H]5CC[C@]43C)[C@H]12` [Ursolic acid], in assay [1], the inhibition at 3 µM is 0% and the inhibition at 30 µM came out at 0%.

Turning to `O=c1c(O[C@@H]2O[C@H](CO)[C@H](O)[C@H](O)[C@H]2O)c(-c2ccc(O)c(O)c2)oc2cc(O)cc(O)c12` [Quercetin-3-O-beta-D-galactopyranoside], in assay [1], the inhibition at 3 µM amounted to 75% and the “HMG-CoA reductase inhibiting activity (in words)” value is listed as “very good HMG-CoA reductase inhibiting activity”.

For `CC[C@H](C)C(=O)O[C@H]1C[C@@H](C)C=C2C=C[C@H](C)[C@H](CC[C@@H]3C[C@@H](O)CC(=O)O3)[C@H]21` [Lovastatin], in assay [1], the inhibition at 3 µM is 100% and the inhibition at 30 µM is 100%.

`O=C1[C@H](CC[C@H](O)c2ccc(F)cc2)[C@@H](c2ccc(O)cc2)N1c1ccc(F)cc1` [Ezetimibe]: the “LDL levels relative to day one” value is 100% in assay [2] (t = day 1 (pre-treatment)), 22%* in assay [2] (t = day 15) and 15%* in assay [2] (t = day 29). The “Total plasma cholesterol levels relative to day one (pre-treatment)” value is recorded as 100% in assay [2] (t = day 1 (pre-treatment)), 61%* in assay [2] (t = day 15) and 41%* in assay [2] (t = day 29).

Regarding `C[C@@H]1CC[C@]2(C(=O)O)CC[C@]3(C)C(=CC[C@@H]4[C@@]5(C)CC[C@@H](O)[C@](C)(CO)[C@@H]5CC[C@]43C)[C@@H]2[C@]1(C)O` [Barbinervic acid], the inhibition at 30 µM in assay [1] amounted to 37%.

Turning to `C[C@@H]1CC[C@]2(C(=O)O)CC[C@]3(C)C(=CC[C@@H]4[C@@]5(C)C[C@@H](O)[C@@H](O)C(C)(C)[C@@H]5CC[C@]43C)[C@@H]2[C@]1(C)O` [Euscaphic acid], in assay [1], the inhibition at 3 µM came to 91% and the “HMG-CoA reductase inhibiting activity (in words)” value is recorded as “strongest HMG-CoA reductase inhibiting activity”.

As for `C[C@@H]1CC[C@]2(C(=O)O)CC[C@]3(C)C(=CC[C@@H]4[C@@]5(C)CC[C@H](O)C(C)(C)[C@@H]5CC[C@]43C)[C@@H]2[C@]1(C)O` [Pomolic acid], the inhibition at 30 µM in assay [1] amounted to 25%.
